Experimental data reported in patent publication US4317823A, “Pyrazolobenzodiazepinones, their intermediates, their compositions and their use” (Byk Gulden Lomberg Chemische Fabrik GmbH, priority 1979, dated 1982).

Columns and labels:
Shay rats = test: Anti-ulcerogenic action (protective action on the stomach), Shay rats: pylorus ligature plus oral acetylsalicylic acid, ulcer index; format: in vivo; details: for TQ LD50/ED50 (therapeutic quotient): LD50 i.v. mice / ED50 p.o. rats; for ED50: Rattus norvegicus, Shay rats, oral 1 hour before pylorus ligature, dose which reduces the ulcer index by 50% compared with the control group, read-out: Protective action on the stomach ED50 administered perorally to rats; for dose dependence of the anti-ulcerogenic action (dose/action curve): Shay model
Description: ED50 = the dose which reduces the ulcer index for the group treated
by 50% compared with the control group
The anti-ulcerogenic action is tested by a method using the so-called Shay rats:
(§1) Ulcers are provoked in rats which have been starved for 24 hours (female rats, 180 to 200 g, 4 animals in a cage with a high grille) by means of a pylorus ligature (under anaesthesia with diethyl ether) and oral administration of 100 mg/10 ml/kg of acetylsalicylic acid. The substances to be tested are administered orally (10 ml/kg) 1 hour before the pylorus ligature. The closure of the wound is effected by means of Michel's clips. The animals are killed 4 hours afterwards under ether anaesthesia by dislocating the atlas, and the stomach is cut out. The stomach is opened longitudinally and is fixed on a cork slab, the quantity of gastric juice secreted (volume) having been determined beforehand; the number and size (=diameter) of ulcers present are determined by means of a stereomicroscope at a 10-fold magnification. The product of the degree of severity (in accordance with the following rating scale) and the number of the ulcers is used as an individual ulcer index.
ulcer diameter 0.1-1.4 mm 1
The reduction in the average ulcer index in each group treated compared with that of the control group (=100%) is used as a measure of the anti-ulcerogenic effect. The ED50 indicates the dose which reduces the average ulcer index by 50%.

stomach secretion = test: Inhibition of stomach secretion (gastric juice volume) in rats; format: in vivo, rat; details: 4 hours after administration of the antiulcerogenic ED50
Description: *% inhibition = inhibition (in %) of stomach secretion 4 hours after
administration of the antiulcerogenic ED50
as §1

[1] = Determination of toxicity, intravenous LD50 in mice; details: mouse, in vivo, female NMRI mice, 7 days observation, 5 animals per dose, read-out: Toxicity LD50 administered intravenously to mice
Description: LD50 = the dose at which 50% of the animals die
The toxicity investigations are carried out on female NMRI mice (body weight 22 to 26 g). The animals (5 animals per dose) receive feed and water ad lib. Various doses of the substances are administered intravenously (duration of injection 1 minute). The observation period is 7 days. The LD50 (the dose at which 50% of the animals die) is determined by means of a linear regression.

CC1(C)[C@@H](OC(=O)CCC(=O)O)CC[C@]2(C)[C@H]3C(=O)C=C4[C@@H]5C[C@@](C)(C(=O)O)CC[C@]5(C)CC[C@@]4(C)[C@]3(C)CC[C@@H]12 [Compound 1, carbenoxolone, reference compound]
TQ LD50/ED50 (therapeutic quotient) (Shay rats): 4.1
ED50 (Shay rats): ~70 mg/kg
increase in the anti-ulcerogenic action above the ED50 (Shay rats; even at 300 mg/kg): not possible to achieve any substantial increase in the anti-ulcerogenic action
dose dependence of the anti-ulcerogenic action (dose/action curve) (Shay rats; rats): flattens out very considerably
% inhibition of stomach secretion in rats (stomach secretion): 7%

Cc1nn(C)c2c1N(C(=O)CN1CCN(C)CC1)c1ccccc1NC2=O [Compound 2, 1,3-dimethyl-4-[(4-methylpiperazin-1-yl)acetyl]-1,4,9,10-tetrahydropyrazolo[4,3-b][1,5]benzodiazepin-10-one]
TQ LD50/ED50 (therapeutic quotient) (Shay rats): 84.0
ED50 (Shay rats): 2.5 mg/kg
inhibitory effect (anti-ulcerogenic action) (Shay rats; rats, 30 mg/kg): up to 95%
dose dependence of the anti-ulcerogenic action (dose/action curve) (Shay rats; rats): depends strictly on the dose
% inhibition of stomach secretion in rats (stomach secretion): 20%
LD50 at 168 h [1]: 210 mg/kg
